24 compounds from patent US9512107B2, “Therapeutically active compositions and their methods of use” (Agios Pharmaceuticals, Inc., priority 2012, dated 2016) can be followed below.

Changes are numbered by the printed parent chain. Like-named read-outs stand apart in the source and are kept apart here.

The target of one assay is T1, IDH2 R172K (Homo sapiens, UniProt P48735, R172K).
T1 sequence (P48735 40-452 R172K): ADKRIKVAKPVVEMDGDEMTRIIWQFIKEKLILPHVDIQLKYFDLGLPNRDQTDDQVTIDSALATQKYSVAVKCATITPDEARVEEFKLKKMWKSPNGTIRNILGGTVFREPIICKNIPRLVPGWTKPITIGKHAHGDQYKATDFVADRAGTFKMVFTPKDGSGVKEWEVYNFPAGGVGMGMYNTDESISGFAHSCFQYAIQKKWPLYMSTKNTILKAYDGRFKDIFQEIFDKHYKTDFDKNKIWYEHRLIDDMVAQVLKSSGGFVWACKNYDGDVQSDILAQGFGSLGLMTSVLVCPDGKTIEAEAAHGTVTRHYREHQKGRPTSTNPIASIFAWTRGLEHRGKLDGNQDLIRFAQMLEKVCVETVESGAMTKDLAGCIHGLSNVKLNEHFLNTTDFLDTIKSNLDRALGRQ
The assay can be described thus: IDH2 R172K enzymatic assay (NADPH cofactor depletion, diaphorase/resazurin readout). It counts as biochemical. The note with it: read-out: Enz R172K. The procedure, abridged:
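Test compounds are incubated with the mutant enzyme for one hour at ambient temperature. A substrate mix of 50 μM NADPH plus 6.3 mM α-KG initiates turnover, which proceeds for one hour. Diaphorase and resazurin then halt the reaction by depleting the cofactor and convert the remaining NADPH into a fluorescent signal.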
Background: Alamar Blue is a resazurin reagent that responds to reducing activity.

Another assay has as its target T2, IDH2 R140Q (Homo sapiens, UniProt P48735, R140Q).
T2 sequence (P48735 40-452 R140Q): T1 sequence (P48735 40-452 R172K) with R101Q, K133R
The assay can be described thus: IDH2 R140Q enzymatic assay (cofactor depletion, similar format). The class given is biochemical.

For assay [1], the system named is U87MG pLVX-IDH2 R140Q-neo cells. The assay can be described thus: U87MG pLVX-IDH2 R140Q-neo cell based assay, 2-HG in media by LC-MS at 48 hours. The note with it: Homo sapiens, U-87 MG. The procedure, abridged: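 U87MG cells stably expressing IDH2 R140Q were seeded overnight, then exposed to compound at 0.2% final DMSO at 37 °C, 5% CO2. 2-HG in the medium was quantified by LC-MS at 48 h. Growth inhibition was read by CellTiter-Glo luminescence at 72 h.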

In the case of `COc1ccc(F)c(-c2nc(Nc3ccnc(C(F)(F)F)c3)nc(NC(C)C)n2)c1` [Compound 630, 6-(2-Fluoro-5-methoxy-phenyl)-N-isopropyl-N′-(2-trifluoromethyl-pyridin-4-yl)-[1,3,5]triazine-2,4-diamine], the IC50 (on IDH2 R172K; at IDH2 R140Q (read-out: Enz R140Q); in assay [1]) was less than 0.1 µM throughout.
As for `CCCNc1nc(Nc2ccncc2)nc(-c2ccccc2)n1` [Compound 249, 6-phenyl-N^2-propyl-N^4-(pyridin-4-yl)-1,3,5-triazine-2,4-diamine], the figures for the IC50 (at IDH2 R172K; on IDH2 R140Q (read-out: Enz R140Q); in assay [1]) were 0.1 to 1 µM, less than 0.1 µM and 0.1 to 1 µM, respectively.
Regarding `CC(C)(CO)CNc1nc(Nc2ccncc2)nc(-c2ccccc2)n1` [Compound 259, 2,2-dimethyl-3-(4-phenyl-6-(pyridin-4-ylamino)-1,3,5-triazin-2-ylamino)propan-1-ol], the IC50 on IDH2 R172K is greater than 10 µM; at IDH2 R140Q (read-out: Enz R140Q) it was 0.1 to 1 µM; in assay [1], 0.1 to 1 µM.
For `CC(C)(C)Nc1nc(Nc2ccnc(C3CC3)c2)nc(-c2cccc(C(F)(F)F)n2)n1` [Compound 564, N-tert-Butyl-N′-(2-cyclopropyl-pyridin-4-yl)-6-(6-trifluoromethyl-pyridin-2-yl)-[1,3,5]triazine-2,4-diamine], the IC50 is less than 0.1 µM on IDH2 R172K, 0.1 to 1 µM on IDH2 R140Q (read-out: Enz R140Q) and less than 0.1 µM in assay [1].
On to `CC(C)(C)CNc1nc(Nc2cncnc2)nc(-c2cccc(C(F)(F)F)n2)n1` [Compound 521, N-(2,2-Dimethyl-propyl)-N′-pyrimidin-5-yl-6-(6-trifluoromethyl-pyridin-2-yl)-[1,3,5]triazine-2,4-diamine], for which the values for the IC50 (at IDH2 R172K; at IDH2 R140Q (read-out: Enz R140Q); in assay [1]) were less than 0.1 µM, 0.1 to 1 µM and less than 0.1 µM, respectively.
In the case of `COC(=O)Nc1cccc(-c2nc(Nc3ccnc(C(F)(F)F)c3)nc(NC(C)C)n2)n1` [Compound 679, Methyl(6-(4-(isopropylamino)-6-((2-(trifluoromethyl)pyridin-4-yl)amino)-1,3,5-triazin-2-yl)pyridin-2-yl)carbamate], the IC50 on IDH2 R172K was greater than 10 µM; on IDH2 R140Q (read-out: Enz R140Q) it was 0.1 to 1 µM; in assay [1], 0.1 to 1 µM.
On to `CC(C)(C)Nc1nc(Nc2ccccc2)nc(-c2ccccc2)n1` [Compound 112], for which the IC50 at IDH2 R172K was 0.1 to 1 µM; on IDH2 R140Q (read-out: Enz R140Q), less than 0.1 µM; in assay [1], 0.1 to 1 µM.
Turning to `COc1ccc(Nc2nc(NC(C)C)nc(-c3ccccc3)n2)cc1` [Compound 159], the IC50 fell in the range of 1 to 10 µM at IDH2 R172K, 0.1 to 1 µM at IDH2 R140Q (read-out: Enz R140Q) and 0.1 to 1 µM in assay [1].
As to `CC(C)C(C)Nc1nc(Nc2ccncc2)nc(-c2ccccc2)n1` (stereo not drawn) [Compound 213, N^2-(3-methylbutan-2-yl)-6-phenyl-N^4-(pyridin-4-yl)-1,3,5-triazine-2,4-diamine], the results for the IC50 (on IDH2 R172K; on IDH2 R140Q (read-out: Enz R140Q); in assay [1]) were 0.1 to 1 µM, less than 0.1 µM and less than 0.1 µM, respectively.
In the case of `Fc1ccc(Nc2nc(NC3CCC3)nc(-c3ccccn3)n2)cn1` [Compound 345, N^2-cyclobutyl-N^4-(6-fluoropyridin-3-yl)-6-(pyridin-2-yl)-1,3,5-triazine-2,4-diamine], the IC50 (on IDH2 R172K; at IDH2 R140Q (read-out: Enz R140Q); in assay [1]) was 0.1 to 1 µM each time.
On to `CC(C)(C)Nc1nc(Nc2ccnc(C(C)(F)F)c2)nc(-c2cccc(C(C)(F)F)n2)n1` [Compound 596, N2-(tert-butyl)-6-(6-(1,1-difluoroethyl)pyridin-2-yl)-N4-(2-(1,1-difluoroethyl)pyridin-4-yl)-1,3,5-triazine-2,4-diamine], for which the IC50 is less than 0.1 µM at IDH2 R172K, 0.1 to 1 µM at IDH2 R140Q (read-out: Enz R140Q) and less than 0.1 µM in assay [1].
In the case of `N#Cc1cc(Nc2nc(NC3C4COCC43)nc(-c3cccc(C(F)(F)F)n3)n2)ccn1` (stereo not drawn) [Compound 505, 4-[4-(3-Oxa-bicyclo[3.1.0]hex-6-ylamino)-6-(6-trifluoromethyl-pyridin-2-yl)-[1,3,5]triazin-2-ylamino]-pyridine-2-carbonitrile], the IC50 at IDH2 R172K is 0.1 to 1 µM; at IDH2 R140Q (read-out: Enz R140Q), 0.1 to 1 µM; in assay [1] it was less than 0.1 µM.
With `CC(CO)Nc1nc(Nc2ccnc(C(F)(F)F)c2)nc(-c2cccc(C(F)(F)F)n2)n1` (stereo not drawn) [Compound 527, 2-[4-(6-Trifluoromethyl-pyridin-2-yl)-6-(2-trifluoromethyl-pyridin-4-ylamino)-[1,3,5]triazin-2-ylamino]-propan-1-ol], the IC50 at IDH2 R172K is less than 0.1 µM; at IDH2 R140Q (read-out: Enz R140Q), 0.1 to 1 µM; in assay [1], less than 0.1 µM.
For the compound `CC(C)(O)CNc1nc(Nc2ccnc(C(F)(F)F)c2)nc(-c2cccc(C(F)(F)F)n2)n1` [Compound 409, 2-methyl-1-(4-(6-(trifluoromethyl)pyridin-2-yl)-6-(2-(trifluoromethyl)pyridin-4-ylamino)-1,3,5-triazin-2-ylamino)propan-2-ol], the IC50 at IDH2 R172K was 0.1 to 1 µM; against IDH2 R140Q (Enz R140Q), 0.1 to 1 µM; in assay [1] it was less than 0.1 µM.
As to `CC(C)(C)Nc1nc(Nc2cc(F)cc(F)c2)nc(-c2cccc(N)n2)n1` [Compound 698, 6-(6-aminopyridin-2-yl)-N2-(tert-butyl)-N4-(3,5-difluorophenyl)-1,3,5-triazine-2,4-diamine], the results for the IC50 (on IDH2 R172K; on IDH2 R140Q (read-out: Enz R140Q); in assay [1]) were less than 0.1 µM, 0.1 to 1 µM and less than 0.1 µM, respectively.
For the compound `FC(F)(F)CNc1nc(Nc2ccncc2)nc(-c2ccccc2)n1` [Compound 215, 6-phenyl-N^2-(pyridin-4-yl)-N^4-(2,2,2-trifluoroethyl)-1,3,5-triazine-2,4-diamine], the results for the IC50 (on IDH2 R172K; on IDH2 R140Q (read-out: Enz R140Q); in assay [1]) were 1 to 10 µM, less than 0.1 µM and 0.1 to 1 µM, respectively.
Turning to `CC(C)Nc1nc(Nc2ccccc2)nc(-c2ccccc2Cl)n1` [Compound 121], the IC50 (on IDH2 R172K; at IDH2 R140Q (read-out: Enz R140Q); in assay [1]) was less than 0.1 µM throughout.
On to `CC(F)(F)c1cc(Nc2nc(NCC3CC3)nc(-c3cccc(C(F)(F)F)n3)n2)ccn1` [Compound 604, N2-(cyclopropylmethyl)-N4-(2-(1,1-difluoroethyl)pyridin-4-yl)-6-(6-(trifluoromethyl)pyridin-2-yl)-1,3,5-triazine-2,4-diamine], for which the values for the IC50 (at IDH2 R172K; at IDH2 R140Q (read-out: Enz R140Q); in assay [1]) were less than 0.1 µM, 0.1 to 1 µM and less than 0.1 µM, respectively.
On to `CC(C)(O)CNc1nc(Nc2ccnc(C(F)(F)F)c2)nc(-c2cccc(C(C)(F)F)n2)n1` [Compound 594, 1-((4-(6-(1,1-difluoroethyl)pyridin-2-yl)-6-((2-(trifluoromethyl)pyridin-4-yl)amino)-1,3,5-triazin-2-yl)amino)-2-methylpropan-2-ol], for which the results for the IC50 (on IDH2 R172K; on IDH2 R140Q (read-out: Enz R140Q); in assay [1]) were 0.1 to 1 µM, 0.1 to 1 µM and less than 0.1 µM, respectively.
Regarding `CS(=O)(=O)c1cc(F)cc(Nc2nc(NCC3CC3)nc(-c3cccc(C(F)(F)F)n3)n2)c1` [Compound 593, N-Cyclopropylmethyl-N′-(3-fluoro-5-methanesulfonyl-phenyl)-6-(6-trifluoromethyl-pyridin-2-yl)-[1,3,5]triazine-2,4-diamine], the IC50 at IDH2 R172K was less than 0.1 µM; at IDH2 R140Q (read-out: Enz R140Q), 0.1 to 1 µM; in assay [1], less than 0.1 µM.
As to `O[C@@H]1CC[C@@H](Nc2nc(Nc3ccccc3)nc(-c3ccccc3)n2)C1` [Compound 267, (1R,3R)-3-(4-phenyl-6-(phenylamino)-1,3,5-triazin-2-ylamino)cyclopentanol], the IC50 on IDH2 R172K was 1 to 10 µM; at IDH2 R140Q (read-out: Enz R140Q), less than 0.1 µM; in assay [1], 0.1 to 1 µM.
In the case of `CC(C)Nc1nc(Nc2ccnc(F)c2)nc(-c2ccccc2)n1` [Compound 223, N^2-(2-fluoropyridin-4-yl)-N^4-isopropyl-6-phenyl-1,3,5-triazine-2,4-diamine], the IC50 (at IDH2 R172K; at IDH2 R140Q (read-out: Enz R140Q); in assay [1]) was less than 0.1 µM each time.
Regarding `c1ccc(Nc2nc(NC3CCOC3)nc(-c3ccccc3)n2)cc1` (stereo not drawn) [Compound 174, N^2,6-diphenyl-N^4-(tetrahydrofuran-3-yl)-1,3,5-triazine-2,4-diamine], the results for the IC50 (on IDH2 R172K; at IDH2 R140Q (read-out: Enz R140Q); in assay [1]) were 0.1 to 1 µM, less than 0.1 µM and less than 0.1 µM, respectively.
As for `Clc1cccc(Nc2nc(NC3CCOCC3)nc(-c3ccccc3)n2)c1` [Compound 173], the IC50 (at IDH2 R172K; at IDH2 R140Q (read-out: Enz R140Q); in assay [1]) was less than 0.1 µM throughout.
